The values that follow come from ChEMBL document CHEMBL5346882 (Eur J Med Chem, 2023).

pIC50: −log10 of the molar value. Where only a bound is given, the exact number is not on record here.

Data set [1] addresses ATP-dependent translocase ABCB1 (Homo sapiens, UniProt P08183). Put plainly: Substrate activity at P-gp membranes (unknown origin) at 100 uM incubated for 40 mins by luminescent glo assay relative to control. The format is ADME, cell membranes, Membrane.
A short description of data set [2]: Half life in CD-1 mouse brain at 30 mg/kg, ip administered as single dose and measured after 15 to 240 mins by LC-MS/MS analysis. In kind it is ADME, organism-based. Particulars: time 15-240 min; call rule not given here.
Data set [3] is described as follows: Ratio of brain to plasma partition coefficient in CD-1 mouse at 30 mg/kg, ip administered as single dose and measured after 15 to 240 mins by LC-MS/MS analysis. The format is ADME, organism-based. Particulars: time 15-240 min, read-out: BPR.
Data set [4] in a line: AUC (0 to t) in CD-1 mouse plasma at 30 mg/kg, ip administered as single dose and measured after 15 to 240 mins by LC-MS/MS analysis. The format is ADME, organism-based. The arrangement: dose 30 mg/kg, time 15-240 min, route ip.
The nature of data set [5]: Tmax in CD-1 mouse plasma at 30 mg/kg, ip administered as single dose and measured after 15 to 240 mins by LC-MS/MS analysis. The format is ADME, organism-based. Particulars: time 15-240 min.
A short description of data set [6]: Tmax in CD-1 mouse plasma at 10 mg/kg, ip administered as single dose and measured after 15 to 240 mins by LC-MS/MS analysis. The format is ADME, organism-based. Conditions: time 15-240 min.
Data set [7] is described as follows: Apparent clearance in CD-1 mouse plasma at 30 mg/kg, ip administered as single dose and measured after 15 to 240 mins by LC-MS/MS analysis. In kind it is ADME, organism-based. Particulars: time 15-240 min, read-out: CL(app).
In the next data set the target is Cytochrome P450 2D6 (Homo sapiens, UniProt P10635). Put plainly: Inhibition of CYP2D6 (unknown origin) at 10 uM. In kind it is ADME.
Cytochrome P450 2D6, sequence (P10635 whole entry): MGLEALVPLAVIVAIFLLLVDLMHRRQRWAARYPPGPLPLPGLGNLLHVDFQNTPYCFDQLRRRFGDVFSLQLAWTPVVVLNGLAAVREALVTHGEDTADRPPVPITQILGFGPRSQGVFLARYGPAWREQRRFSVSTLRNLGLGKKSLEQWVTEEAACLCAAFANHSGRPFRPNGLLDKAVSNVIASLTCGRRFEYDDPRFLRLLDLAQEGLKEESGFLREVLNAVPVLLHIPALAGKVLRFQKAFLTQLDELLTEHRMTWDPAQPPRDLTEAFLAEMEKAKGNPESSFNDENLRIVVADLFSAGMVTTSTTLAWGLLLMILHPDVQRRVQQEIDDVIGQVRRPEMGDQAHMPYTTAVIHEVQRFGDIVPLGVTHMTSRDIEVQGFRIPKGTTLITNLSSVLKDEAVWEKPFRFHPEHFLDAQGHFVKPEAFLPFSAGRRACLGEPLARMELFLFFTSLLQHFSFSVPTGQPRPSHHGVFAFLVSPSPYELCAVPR
Data set [8] can be described thus: MRT in CD-1 mouse brain at 30 mg/kg, ip administered as single dose and measured after 15 to 240 mins by LC-MS/MS analysis. In kind it is ADME, organism-based. Particulars: time 15-240 min.
Data set [9] is described as follows: MRT in CD-1 mouse brain at 10 mg/kg, ip administered as single dose and measured after 15 to 240 mins by LC-MS/MS analysis. Conditions: time 15-240 min. The format is ADME, organism-based.
Data set [10] can be described thus: AUC (0 to t) in CD-1 mouse brain at 10 mg/kg, ip administered as single dose and measured after 15 to 240 mins by LC-MS/MS analysis. The format is ADME, organism-based. On the set-up: time 15-240 min, dose 10 mg/kg, route ip.
The next data set deals with Cytochrome P450 3A4 (Homo sapiens, UniProt P08684). As to the kind of experiment: Inhibition of CYP3A4 (unknown origin) at 10 uM. In kind it is ADME.
Cytochrome P450 3A4, sequence (P08684 whole entry): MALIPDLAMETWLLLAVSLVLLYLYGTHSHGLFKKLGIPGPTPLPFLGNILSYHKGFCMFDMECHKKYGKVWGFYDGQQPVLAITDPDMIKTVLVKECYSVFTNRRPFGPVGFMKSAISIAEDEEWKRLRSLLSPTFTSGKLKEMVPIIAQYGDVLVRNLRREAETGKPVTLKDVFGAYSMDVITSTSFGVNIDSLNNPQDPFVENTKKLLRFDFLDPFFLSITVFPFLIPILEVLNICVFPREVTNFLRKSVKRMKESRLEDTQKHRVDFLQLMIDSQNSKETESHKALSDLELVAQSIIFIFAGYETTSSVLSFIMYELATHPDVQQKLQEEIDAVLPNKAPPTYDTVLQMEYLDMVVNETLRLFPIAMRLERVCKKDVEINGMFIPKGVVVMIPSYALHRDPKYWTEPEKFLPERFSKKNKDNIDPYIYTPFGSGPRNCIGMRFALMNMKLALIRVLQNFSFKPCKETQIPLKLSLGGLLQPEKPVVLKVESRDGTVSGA
Data set [11] can be described thus: AUC (0 to t) in CD-1 mouse plasma at 10 mg/kg, ip administered as single dose and measured after 15 to 240 mins by LC-MS/MS analysis. In kind it is ADME, organism-based. On the set-up: time upper 240 min, dose 10 mg/kg, time lower 15 min, route ip.
A short description of data set [12]: Tmax in CD-1 mouse brain at 30 mg/kg, ip administered as single dose and measured after 15 to 240 mins by LC-MS/MS analysis. The format is ADME, organism-based. Conditions: time 15-240 min.
A short description of data set [13]: MRT in CD-1 mouse plasma at 10 mg/kg, ip administered as single dose and measured after 15 to 240 mins by LC-MS/MS analysis. Conditions: time 15-240 min. The format is ADME, organism-based.
A short description of data set [14]: Ratio of brain to plasma partition coefficient in CD-1 mouse at 10 mg/kg, ip administered as single dose and measured after 15 to 240 mins by LC-MS/MS analysis. In kind it is ADME, organism-based. Conditions: time 15-240 min, read-out: BPR.
The nature of data set [15]: AUC (0 to t) in CD-1 mouse brain at 30 mg/kg, ip administered as single dose and measured after 15 to 240 mins by LC-MS/MS analysis. The arrangement: time upper 240 min, dose 30 mg/kg, time lower 15 min, route ip. In kind it is ADME, organism-based.
A short description of data set [16]: Metabolic stability in human liver microsomes assessed as parent compound remaining incubated for 120 mins in presence of NADPH regeneration system by UPLC/MS analysis. The format is ADME, Microsome. Conditions: read-out: Stability.
Data set [17] is described as follows: Cmax in CD-1 mouse plasma at 10 mg/kg, ip administered as single dose and measured after 15 to 240 mins by LC-MS/MS analysis. The format is ADME, organism-based. The arrangement: dose 10 mg/kg, time 15-240 min, route ip.
Data set [18] is described as follows: Drug metabolism in human liver microsomes assessed as N-dealkylation mediated metabolite formation. The format is ADME, Microsome. Background: Liver microsomes are a subcellular fraction often used to study metabolism.
Data set [19] is described as follows: cells. Particulars: Mus musculus, HEK293.
Description: Inhibition of mouse GAT3 expressed in HEK293 cells assessed as reduction in [3H]-GABA uptake incubated for 10 mins
The target of data set [20] is Sodium- and chloride-dependent GABA transporter 1 (Mus musculus, UniProt P31648). Put plainly: Inhibition of mouse GAT1 expressed in HEK293 cells assessed as reduction in [3H]-GABA uptake incubated for 10 mins. In kind it is cell-based.
Data set [21] can be described thus: Tmax in CD-1 mouse brain at 10 mg/kg, ip administered as single dose and measured after 15 to 240 mins by LC-MS/MS analysis. In kind it is ADME, organism-based. Conditions: time 15-240 min.
Data set [22] is described as follows: Cmax in CD-1 mouse brain at 30 mg/kg, ip administered as single dose and measured after 15 to 240 mins by LC-MS/MS analysis. In kind it is ADME, organism-based. The arrangement: time upper 240 min, time lower 15 min, dose 30 mg/kg, route ip.
Another data set deals with T1, GABA transporter 4 (Mus musculus, UniProt P31650).
T1 sequence (P31650 whole entry): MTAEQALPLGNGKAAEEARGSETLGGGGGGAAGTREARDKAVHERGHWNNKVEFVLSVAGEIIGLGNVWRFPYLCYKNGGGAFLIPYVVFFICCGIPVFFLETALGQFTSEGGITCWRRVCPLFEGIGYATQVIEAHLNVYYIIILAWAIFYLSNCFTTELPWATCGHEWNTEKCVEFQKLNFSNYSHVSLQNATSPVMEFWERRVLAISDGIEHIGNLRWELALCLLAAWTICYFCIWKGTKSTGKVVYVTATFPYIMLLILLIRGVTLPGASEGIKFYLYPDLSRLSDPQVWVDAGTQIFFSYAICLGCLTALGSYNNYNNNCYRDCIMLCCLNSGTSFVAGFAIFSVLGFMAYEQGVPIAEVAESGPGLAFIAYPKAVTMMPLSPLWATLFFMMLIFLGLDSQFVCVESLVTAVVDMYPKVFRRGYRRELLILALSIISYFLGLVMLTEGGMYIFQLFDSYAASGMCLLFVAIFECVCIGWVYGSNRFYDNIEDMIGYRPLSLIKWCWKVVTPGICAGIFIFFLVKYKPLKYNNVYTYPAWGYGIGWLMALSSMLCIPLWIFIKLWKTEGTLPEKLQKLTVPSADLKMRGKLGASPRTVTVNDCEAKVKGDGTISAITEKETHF
Put plainly: Inhibition of mouse GAT4 expressed in HEK293 cells assessed as reduction in [3H]-GABA uptake incubated for 10 mins. In kind it is cell-based.

The nature of data set [23]: Half life in CD-1 mouse brain at 10 mg/kg, ip administered as single dose and measured after 15 to 240 mins by LC-MS/MS analysis. In kind it is ADME, organism-based. Conditions: time 15-240 min.
Data set [24] can be described thus: Apparent volume of distribution in CD-1 mouse plasma at 30 mg/kg, ip administered as single dose and measured after 15 to 240 mins by LC-MS/MS analysis. In kind it is ADME, organism-based. Particulars: in vivo, time 15-240 min.
A short description of data set [25]: Cmax in CD-1 mouse brain at 10 mg/kg, ip administered as single dose and measured after 15 to 240 mins by LC-MS/MS analysis. The arrangement: time 15-240 min, dose 10 mg/kg, route ip. The format is ADME, organism-based.
A short description of data set [26]: Half life in CD-1 mouse plasma at 10 mg/kg, ip administered as single dose and measured after 15 to 240 mins by LC-MS/MS analysis. Particulars: time 15-240 min. In kind it is ADME, organism-based.
Data set [27] is described as follows: Half life in CD-1 mouse plasma at 30 mg/kg, ip administered as single dose and measured after 15 to 240 mins by LC-MS/MS analysis. The format is ADME, organism-based. Particulars: time 15-240 min.
The nature of data set [28]: Cmax in CD-1 mouse plasma at 30 mg/kg, ip administered as single dose and measured after 15 to 240 mins by LC-MS/MS analysis. The format is ADME, organism-based. The arrangement: time upper 240 min, time lower 15 min, dose 30 mg/kg, route ip.
A short description of data set [29]: Apparent volume of distribution in CD-1 mouse plasma at 10 mg/kg, ip administered as single dose and measured after 15 to 240 mins by LC-MS/MS analysis. The format is ADME, organism-based. Conditions: in vivo, time 15-240 min.
A short description of data set [30]: Apparent clearance in CD-1 mouse plasma at 10 mg/kg, ip administered as single dose and measured after 15 to 240 mins by LC-MS/MS analysis. In kind it is ADME, organism-based. Conditions: time 15-240 min, read-out: CL(app).
The nature of data set [31]: MRT in CD-1 mouse plasma at 30 mg/kg, ip administered as single dose and measured after 15 to 240 mins by LC-MS/MS analysis. In kind it is ADME, organism-based. Conditions: time 15-240 min.
The nature of data set [32]: cells. Conditions: Mus musculus, HEK293. The source holds these as a separate data set.
Description: Inhibition of mouse GAT2 expressed in HEK293 cells assessed as reduction in [3H]-GABA uptake incubated for 10 mins
The target in another data set is Cholinesterase (Homo sapiens, UniProt P06276). As to the kind of experiment: Inhibition of human recombinant BuChE using butyrylthiocholine iodide as substrate preincubated for 5 mins followed by substrate addition and measured every 2 mins by DTNB-reagent based Ellman's method.
Cholinesterase, sequence (P06276 whole entry): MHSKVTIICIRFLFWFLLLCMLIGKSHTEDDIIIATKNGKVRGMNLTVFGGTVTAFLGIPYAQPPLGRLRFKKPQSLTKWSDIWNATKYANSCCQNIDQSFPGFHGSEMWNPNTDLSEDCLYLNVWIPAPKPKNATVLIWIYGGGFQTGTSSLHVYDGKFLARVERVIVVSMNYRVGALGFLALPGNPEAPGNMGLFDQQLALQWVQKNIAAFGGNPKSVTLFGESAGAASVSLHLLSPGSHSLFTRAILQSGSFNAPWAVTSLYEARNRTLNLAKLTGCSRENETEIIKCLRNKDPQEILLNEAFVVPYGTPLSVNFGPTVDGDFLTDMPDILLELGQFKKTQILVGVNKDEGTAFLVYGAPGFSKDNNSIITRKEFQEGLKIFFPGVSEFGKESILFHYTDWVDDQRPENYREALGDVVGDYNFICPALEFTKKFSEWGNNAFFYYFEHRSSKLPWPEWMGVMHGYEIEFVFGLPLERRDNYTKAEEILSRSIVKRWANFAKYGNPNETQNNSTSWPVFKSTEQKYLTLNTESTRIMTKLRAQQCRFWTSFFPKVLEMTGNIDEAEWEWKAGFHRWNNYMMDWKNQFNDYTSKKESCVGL
Another data set has as its target Beta-secretase 1 (Homo sapiens, UniProt P56817). Put plainly: Inhibition of human recombinant BACE-1 expressed in baculovirus using swedish mutant of APP based Rh-EVNLDAEFK-quencher as substrate incubated for 60 mins by FRET assay.

Beta-secretase 1, sequence (P56817 whole entry): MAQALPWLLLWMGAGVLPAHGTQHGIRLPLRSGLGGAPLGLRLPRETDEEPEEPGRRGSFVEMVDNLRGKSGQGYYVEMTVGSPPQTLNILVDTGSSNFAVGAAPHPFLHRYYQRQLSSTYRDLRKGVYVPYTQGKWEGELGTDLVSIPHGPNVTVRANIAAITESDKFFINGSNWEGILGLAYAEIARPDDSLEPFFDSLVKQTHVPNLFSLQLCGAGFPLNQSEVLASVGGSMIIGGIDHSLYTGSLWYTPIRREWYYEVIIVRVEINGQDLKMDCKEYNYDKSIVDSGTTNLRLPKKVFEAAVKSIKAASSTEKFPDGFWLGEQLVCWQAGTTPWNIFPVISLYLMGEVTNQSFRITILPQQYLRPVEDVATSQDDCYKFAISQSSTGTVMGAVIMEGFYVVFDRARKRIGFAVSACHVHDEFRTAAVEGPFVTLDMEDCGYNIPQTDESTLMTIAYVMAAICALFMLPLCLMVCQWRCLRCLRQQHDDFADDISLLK
ATP-dependent translocase ABCB1, sequence (P08183 whole entry): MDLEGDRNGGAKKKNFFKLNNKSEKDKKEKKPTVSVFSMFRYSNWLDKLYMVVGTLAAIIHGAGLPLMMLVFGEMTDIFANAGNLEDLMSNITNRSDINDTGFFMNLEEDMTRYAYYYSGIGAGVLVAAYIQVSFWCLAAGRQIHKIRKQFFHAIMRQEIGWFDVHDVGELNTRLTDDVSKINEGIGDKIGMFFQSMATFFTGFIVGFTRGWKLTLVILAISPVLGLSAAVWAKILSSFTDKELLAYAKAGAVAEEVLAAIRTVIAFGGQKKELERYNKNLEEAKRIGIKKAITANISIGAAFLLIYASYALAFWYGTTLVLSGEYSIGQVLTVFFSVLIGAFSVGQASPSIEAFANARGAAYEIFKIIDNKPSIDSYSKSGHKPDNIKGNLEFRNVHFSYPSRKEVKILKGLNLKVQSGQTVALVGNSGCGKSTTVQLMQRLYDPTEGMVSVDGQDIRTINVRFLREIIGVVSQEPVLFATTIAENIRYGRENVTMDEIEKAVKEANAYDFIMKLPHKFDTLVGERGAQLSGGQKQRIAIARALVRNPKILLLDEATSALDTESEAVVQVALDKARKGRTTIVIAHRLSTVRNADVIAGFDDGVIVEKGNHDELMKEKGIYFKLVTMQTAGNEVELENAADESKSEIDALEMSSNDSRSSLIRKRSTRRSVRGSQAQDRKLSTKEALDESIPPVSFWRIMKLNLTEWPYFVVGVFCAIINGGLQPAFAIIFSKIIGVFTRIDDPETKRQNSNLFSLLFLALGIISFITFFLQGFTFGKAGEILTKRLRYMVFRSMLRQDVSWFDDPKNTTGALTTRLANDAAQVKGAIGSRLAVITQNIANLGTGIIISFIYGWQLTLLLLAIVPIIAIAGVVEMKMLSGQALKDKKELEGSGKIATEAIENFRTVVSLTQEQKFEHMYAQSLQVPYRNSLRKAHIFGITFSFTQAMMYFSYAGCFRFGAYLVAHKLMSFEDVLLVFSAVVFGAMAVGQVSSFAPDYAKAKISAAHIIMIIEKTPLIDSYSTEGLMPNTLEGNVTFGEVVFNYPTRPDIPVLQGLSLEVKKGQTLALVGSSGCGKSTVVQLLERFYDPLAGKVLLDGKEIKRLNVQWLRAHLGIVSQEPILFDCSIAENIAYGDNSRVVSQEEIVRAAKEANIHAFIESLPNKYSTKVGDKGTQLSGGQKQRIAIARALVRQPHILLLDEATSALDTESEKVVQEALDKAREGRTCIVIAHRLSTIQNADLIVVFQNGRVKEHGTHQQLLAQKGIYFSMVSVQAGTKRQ

As usually defined, the half-life is how long it takes for the measured level to halve. A lower half-life goes with rapid decline. What is called AUC(0-t) is exposure summed from dosing to a finite time, without extrapolation to infinity. By Tmax is commonly meant the time at which the peak concentration occurs. The MRT is the average time that molecules of a dose stay in the body. For orientation: Cmax means the peak of the concentration-time curve. In general, pIC50 refers to the negative decadic logarithm of the IC50, by convention in mol/L. As for `O=C(CC(c1ccccc1)c1ccccc1)NCC(O)CNCC1CCCCC1` (configuration not stated), the Activity result in [1] is reported as “<= 190%”. Moreover, the half-life came out at 4.24 h in [2], 5.84 h in [23], 1.6 h in data set [26] and 0.912 h in data set [27]. Also, the results for the Kp in data set [3] and in data set [14] were 0.28 and 0.34, respectively. For the same molecule, the AUC(0-t) was 441 ng·h/mL in data set [4], 85.1 ng·h/mL in data set [10], 247 ng·h/mL in data set [11] and 122 ng·h/mL in [15]. The Tmax in data set [5], in data set [6], in data set [12] and in [21] was 0.25 h throughout. Further, the CL/F in data set [7] stood at 1070 mL/min/kg; in data set [30], 577 mL/min/kg. Besides, the “inhibition (INH)” value at Cytochrome P450 2D6 and against Cytochrome P450 3A4 was “Active” in each case. Further, the MRT in [8] is 1.8 h; in data set [9], 1.88 h; in data set [13], 1.24 h; in data set [31] it was 1.03 h. For the same molecule, the remaining at 2 h in [16] was > 80%. For the same molecule, the Cmax worked out at 192 ng/mL in [17], 44.3 ng/mL in data set [22], 27.4 ng/mL in data set [25] and 312 ng/mL in [28]. In data set [18], the Drug metabolism result is listed as “Metabolite_Detected”. Also, the negative-log IC50 (pIC50) (in the data set “cells [19]”; in data set [20]; at GABA transporter 4; in the data set “cells [32]”) was < 5.00 throughout. In addition, the values for the Vz in data set [24] and in [29] were 84.4 L/kg and 80 L/kg, respectively.

Consider `CC(C)(C)c1cccc(CNCC(O)CNCCC(c2ccccc2)c2ccccc2)c1` (configuration not stated), for which the figures for the pIC50 on Cholinesterase and at Beta-secretase 1 were 5.22 and 4.39, respectively.
